Laboratory results reported in paper PMC5513037, “Examining the influence of specificity ligands and ATP-competitive ligands on the overall effectiveness of bivalent kinase inhibitors” (Proteome Science, 2017).

Columns and labels:
Assay in all cases: KAM-matrix competition in K562 lysate;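 as to 0.001 uM KAM: median log10 fold change of treatment over DMSO control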;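 as to 0.01 uM KAM: median log10 fold change of treatment over DMSO control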;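 as to 0.1 uM KAM: median log10 fold change of treatment over DMSO control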;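 as to 1 uM KAM: median log10 fold change of treatment over DMSO control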;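 as to 10 uM KAM: median log10 fold change of treatment over DMSO control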
Assay type in all cases: binding
BUB1B = biological target: T1, BUB1B (Homo sapiens, UniProt O60566);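 as to 0.001 uM KAM: median log10 fold change of treatment over DMSO control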;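 as to 0.01 uM KAM: median log10 fold change of treatment over DMSO control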;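 as to 0.1 uM KAM: median log10 fold change of treatment over DMSO control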;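 as to 1 uM KAM: median log10 fold change of treatment over DMSO control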;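 as to 10 uM KAM: median log10 fold change of treatment over DMSO control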
T1 construct: endogenous in cells; host or cells: K562
T1 sequence (O60566 whole entry): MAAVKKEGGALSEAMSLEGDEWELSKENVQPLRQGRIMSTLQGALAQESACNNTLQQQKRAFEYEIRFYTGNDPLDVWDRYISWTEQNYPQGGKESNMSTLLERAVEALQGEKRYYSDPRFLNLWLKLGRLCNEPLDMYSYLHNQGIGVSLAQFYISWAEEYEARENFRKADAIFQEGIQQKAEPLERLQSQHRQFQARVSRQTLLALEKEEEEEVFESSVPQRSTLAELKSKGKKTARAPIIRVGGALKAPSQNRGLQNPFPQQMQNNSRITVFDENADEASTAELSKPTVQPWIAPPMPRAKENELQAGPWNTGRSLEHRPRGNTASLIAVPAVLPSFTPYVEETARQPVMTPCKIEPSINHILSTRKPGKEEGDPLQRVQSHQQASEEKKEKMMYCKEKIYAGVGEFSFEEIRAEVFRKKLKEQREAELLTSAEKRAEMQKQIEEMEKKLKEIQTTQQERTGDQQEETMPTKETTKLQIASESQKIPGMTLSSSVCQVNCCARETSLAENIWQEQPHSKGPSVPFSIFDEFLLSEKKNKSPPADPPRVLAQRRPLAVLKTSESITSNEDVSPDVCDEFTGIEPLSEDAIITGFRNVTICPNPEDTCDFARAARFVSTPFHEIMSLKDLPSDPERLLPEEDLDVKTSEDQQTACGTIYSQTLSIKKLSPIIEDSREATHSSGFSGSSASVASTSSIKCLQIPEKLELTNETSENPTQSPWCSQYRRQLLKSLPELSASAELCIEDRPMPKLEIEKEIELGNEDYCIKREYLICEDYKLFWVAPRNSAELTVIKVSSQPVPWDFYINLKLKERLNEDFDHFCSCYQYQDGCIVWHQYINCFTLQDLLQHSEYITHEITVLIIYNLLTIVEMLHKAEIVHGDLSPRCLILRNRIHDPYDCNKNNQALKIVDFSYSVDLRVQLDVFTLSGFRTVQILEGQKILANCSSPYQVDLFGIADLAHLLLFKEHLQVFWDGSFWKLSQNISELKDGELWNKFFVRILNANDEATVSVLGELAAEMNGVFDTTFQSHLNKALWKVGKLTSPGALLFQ
Protocol: (§1) Supplement 12953_2017_125_MOESM1_ESM.zip/MS_Supp Info.xlsx, sheet "KAM" | column: 10 uM KAM; 1 uM KAM; 0.1 uM KAM; 0.01 uM KAM; 0.001 uM KAM; RB50

AURKC = biological target: T2, AURKC (Homo sapiens, UniProt Q9UQB9)
T2 construct: endogenous in cells; host or cells: K562
T2 sequence (Q9UQB9 1-309): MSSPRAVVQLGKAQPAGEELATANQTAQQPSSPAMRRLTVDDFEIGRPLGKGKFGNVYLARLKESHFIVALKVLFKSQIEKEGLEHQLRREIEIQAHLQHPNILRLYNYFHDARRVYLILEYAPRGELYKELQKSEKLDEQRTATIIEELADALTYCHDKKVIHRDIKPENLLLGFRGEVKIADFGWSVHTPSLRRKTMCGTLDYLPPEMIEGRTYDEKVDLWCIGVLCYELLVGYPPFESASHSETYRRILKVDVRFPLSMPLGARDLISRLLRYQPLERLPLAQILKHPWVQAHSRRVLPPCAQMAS
Protocol: as §1

VRK1 = biological target: T3, VRK1 (Homo sapiens, UniProt Q99986);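 as to 0.001 uM KAM: median log10 fold change of treatment over DMSO control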;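 as to 0.01 uM KAM: median log10 fold change of treatment over DMSO control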;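 as to 0.1 uM KAM: median log10 fold change of treatment over DMSO control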;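 as to 1 uM KAM: median log10 fold change of treatment over DMSO control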;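 as to 10 uM KAM: median log10 fold change of treatment over DMSO control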
T3 construct: endogenous in cells; host or cells: K562
T3 sequence (Q99986 1-396): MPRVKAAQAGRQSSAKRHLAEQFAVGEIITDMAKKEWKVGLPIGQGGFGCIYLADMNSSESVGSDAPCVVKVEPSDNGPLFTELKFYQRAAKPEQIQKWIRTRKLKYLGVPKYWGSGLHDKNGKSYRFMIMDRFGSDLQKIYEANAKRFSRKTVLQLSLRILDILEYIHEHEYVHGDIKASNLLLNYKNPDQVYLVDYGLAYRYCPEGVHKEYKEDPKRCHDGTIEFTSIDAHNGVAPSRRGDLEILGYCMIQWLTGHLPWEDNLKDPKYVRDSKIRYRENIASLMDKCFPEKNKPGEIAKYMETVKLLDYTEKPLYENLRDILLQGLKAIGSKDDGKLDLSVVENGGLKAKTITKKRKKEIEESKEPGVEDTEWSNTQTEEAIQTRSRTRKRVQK
Protocol: as §1

INSR = biological target: T4, INSR (Homo sapiens, UniProt P06213);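 as to 0.001 uM KAM: median log10 fold change of treatment over DMSO control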;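 as to 0.01 uM KAM: median log10 fold change of treatment over DMSO control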;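 as to 0.1 uM KAM: median log10 fold change of treatment over DMSO control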;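 as to 1 uM KAM: median log10 fold change of treatment over DMSO control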;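 as to 10 uM KAM: median log10 fold change of treatment over DMSO control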
T4 construct: endogenous in cells; host or cells: K562
T4 sequence (P06213 28-1382): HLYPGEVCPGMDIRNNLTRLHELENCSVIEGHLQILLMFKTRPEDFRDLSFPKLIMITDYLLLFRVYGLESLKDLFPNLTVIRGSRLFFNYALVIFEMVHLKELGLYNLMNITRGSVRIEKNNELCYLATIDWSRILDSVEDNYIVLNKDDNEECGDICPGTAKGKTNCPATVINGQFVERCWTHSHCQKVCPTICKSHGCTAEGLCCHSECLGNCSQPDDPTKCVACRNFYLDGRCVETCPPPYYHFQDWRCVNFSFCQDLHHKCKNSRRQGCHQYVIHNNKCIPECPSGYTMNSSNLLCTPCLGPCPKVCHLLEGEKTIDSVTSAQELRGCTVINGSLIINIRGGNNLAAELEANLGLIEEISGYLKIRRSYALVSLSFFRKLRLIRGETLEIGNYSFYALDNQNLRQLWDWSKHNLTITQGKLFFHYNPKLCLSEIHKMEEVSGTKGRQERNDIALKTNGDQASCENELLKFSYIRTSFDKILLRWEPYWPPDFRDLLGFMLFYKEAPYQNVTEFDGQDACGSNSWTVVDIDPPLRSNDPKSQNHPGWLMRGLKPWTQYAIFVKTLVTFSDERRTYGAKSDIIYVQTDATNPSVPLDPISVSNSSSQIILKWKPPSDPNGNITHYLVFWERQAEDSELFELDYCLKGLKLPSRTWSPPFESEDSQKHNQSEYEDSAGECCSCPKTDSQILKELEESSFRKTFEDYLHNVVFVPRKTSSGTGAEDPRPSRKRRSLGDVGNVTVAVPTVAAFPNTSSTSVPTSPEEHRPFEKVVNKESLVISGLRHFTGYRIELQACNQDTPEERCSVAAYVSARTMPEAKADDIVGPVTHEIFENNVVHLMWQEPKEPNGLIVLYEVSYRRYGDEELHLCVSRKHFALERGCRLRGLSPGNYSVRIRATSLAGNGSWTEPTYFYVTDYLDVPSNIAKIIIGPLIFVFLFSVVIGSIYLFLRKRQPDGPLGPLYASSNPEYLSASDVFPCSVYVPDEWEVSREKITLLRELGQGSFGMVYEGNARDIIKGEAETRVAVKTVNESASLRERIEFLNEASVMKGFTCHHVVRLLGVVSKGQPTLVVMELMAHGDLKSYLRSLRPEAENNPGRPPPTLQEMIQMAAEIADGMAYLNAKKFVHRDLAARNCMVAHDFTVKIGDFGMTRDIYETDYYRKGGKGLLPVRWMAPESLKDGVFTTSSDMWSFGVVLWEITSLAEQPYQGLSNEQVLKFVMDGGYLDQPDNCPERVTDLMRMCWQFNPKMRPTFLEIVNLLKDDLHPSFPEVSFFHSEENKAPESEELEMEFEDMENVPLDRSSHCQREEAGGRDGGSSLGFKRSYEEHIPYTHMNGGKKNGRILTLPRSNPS
Protocol: as §1

PTK2 = biological target: T5, PTK2 (Homo sapiens, UniProt Q05397)
T5 construct: endogenous in cells; host or cells: K562
T5 sequence (Q05397 whole entry): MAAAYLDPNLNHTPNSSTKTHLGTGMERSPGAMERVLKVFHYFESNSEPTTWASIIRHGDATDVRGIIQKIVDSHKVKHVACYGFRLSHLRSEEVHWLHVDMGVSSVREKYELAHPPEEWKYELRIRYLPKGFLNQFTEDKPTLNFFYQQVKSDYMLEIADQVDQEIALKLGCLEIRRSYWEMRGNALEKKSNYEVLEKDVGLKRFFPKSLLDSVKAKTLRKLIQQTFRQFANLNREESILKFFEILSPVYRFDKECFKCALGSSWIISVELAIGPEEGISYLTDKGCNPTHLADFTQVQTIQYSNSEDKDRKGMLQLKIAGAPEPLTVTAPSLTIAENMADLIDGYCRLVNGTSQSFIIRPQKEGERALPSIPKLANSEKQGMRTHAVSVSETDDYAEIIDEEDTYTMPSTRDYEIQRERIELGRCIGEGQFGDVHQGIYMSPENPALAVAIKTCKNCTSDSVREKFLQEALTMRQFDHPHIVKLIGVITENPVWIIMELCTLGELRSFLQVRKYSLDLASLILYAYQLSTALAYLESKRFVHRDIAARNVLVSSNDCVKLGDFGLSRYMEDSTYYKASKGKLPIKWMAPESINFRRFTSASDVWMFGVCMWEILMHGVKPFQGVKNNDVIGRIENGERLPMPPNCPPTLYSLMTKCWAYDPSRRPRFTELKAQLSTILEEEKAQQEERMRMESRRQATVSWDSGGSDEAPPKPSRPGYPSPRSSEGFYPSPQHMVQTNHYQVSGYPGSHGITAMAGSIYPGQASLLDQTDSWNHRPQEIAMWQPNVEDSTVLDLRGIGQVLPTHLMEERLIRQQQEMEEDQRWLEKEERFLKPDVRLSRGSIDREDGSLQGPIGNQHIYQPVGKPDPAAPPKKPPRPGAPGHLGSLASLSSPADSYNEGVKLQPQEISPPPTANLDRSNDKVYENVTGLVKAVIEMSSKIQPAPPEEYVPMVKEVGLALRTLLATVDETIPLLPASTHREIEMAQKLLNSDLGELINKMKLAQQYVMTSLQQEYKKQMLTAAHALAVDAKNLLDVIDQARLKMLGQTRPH
Protocol: as §1

MAP2K3 = biological target: T6, MAP2K3 (Homo sapiens, UniProt P46734);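 as to 0.001 uM KAM: median log10 fold change of treatment over DMSO control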;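 as to 0.01 uM KAM: median log10 fold change of treatment over DMSO control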;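 as to 0.1 uM KAM: median log10 fold change of treatment over DMSO control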;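 as to 1 uM KAM: median log10 fold change of treatment over DMSO control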;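 as to 10 uM KAM: median log10 fold change of treatment over DMSO control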
T6 construct: endogenous in cells; host or cells: K562 cell lysate
T6 sequence (P46734 1-347): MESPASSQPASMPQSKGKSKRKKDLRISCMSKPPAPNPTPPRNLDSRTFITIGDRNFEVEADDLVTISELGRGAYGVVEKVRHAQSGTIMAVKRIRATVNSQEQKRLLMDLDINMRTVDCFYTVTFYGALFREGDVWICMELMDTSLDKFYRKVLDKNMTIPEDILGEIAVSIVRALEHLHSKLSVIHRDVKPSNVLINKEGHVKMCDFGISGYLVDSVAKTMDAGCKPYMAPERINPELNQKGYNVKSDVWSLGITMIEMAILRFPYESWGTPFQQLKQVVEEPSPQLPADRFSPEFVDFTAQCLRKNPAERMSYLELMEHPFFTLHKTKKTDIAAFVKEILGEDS
Protocol: as §1

PKMYT1 = biological target: T7, PKMYT1 (Homo sapiens, UniProt Q99640);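 as to 0.001 uM KAM: median log10 fold change of treatment over DMSO control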;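 as to 0.01 uM KAM: median log10 fold change of treatment over DMSO control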;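 as to 0.1 uM KAM: median log10 fold change of treatment over DMSO control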;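 as to 1 uM KAM: median log10 fold change of treatment over DMSO control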;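 as to 10 uM KAM: median log10 fold change of treatment over DMSO control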
T7 construct: endogenous in cells; host or cells: K562
T7 sequence (Q99640 1-499): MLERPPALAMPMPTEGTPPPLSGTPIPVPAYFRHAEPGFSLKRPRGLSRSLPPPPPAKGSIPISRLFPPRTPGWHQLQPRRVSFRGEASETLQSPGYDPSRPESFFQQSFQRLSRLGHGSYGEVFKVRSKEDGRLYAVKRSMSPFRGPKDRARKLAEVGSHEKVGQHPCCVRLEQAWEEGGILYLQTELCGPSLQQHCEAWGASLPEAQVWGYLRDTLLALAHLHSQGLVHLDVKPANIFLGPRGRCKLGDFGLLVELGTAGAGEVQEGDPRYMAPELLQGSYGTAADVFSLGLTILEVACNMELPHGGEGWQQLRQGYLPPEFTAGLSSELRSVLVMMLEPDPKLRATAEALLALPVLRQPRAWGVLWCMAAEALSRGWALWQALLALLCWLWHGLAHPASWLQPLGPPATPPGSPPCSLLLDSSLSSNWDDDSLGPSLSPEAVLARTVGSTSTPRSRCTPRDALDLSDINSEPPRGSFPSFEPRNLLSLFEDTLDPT
Protocol: as §1

ROR2 = biological target: T8, ROR2 (Homo sapiens, UniProt Q01974);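 as to 0.001 uM KAM: median log10 fold change of treatment over DMSO control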;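 as to 0.01 uM KAM: median log10 fold change of treatment over DMSO control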;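 as to 0.1 uM KAM: median log10 fold change of treatment over DMSO control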;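 as to 1 uM KAM: median log10 fold change of treatment over DMSO control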;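 as to 10 uM KAM: median log10 fold change of treatment over DMSO control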
T8 construct: endogenous in cells; host or cells: K562
T8 sequence (Q01974 34-943): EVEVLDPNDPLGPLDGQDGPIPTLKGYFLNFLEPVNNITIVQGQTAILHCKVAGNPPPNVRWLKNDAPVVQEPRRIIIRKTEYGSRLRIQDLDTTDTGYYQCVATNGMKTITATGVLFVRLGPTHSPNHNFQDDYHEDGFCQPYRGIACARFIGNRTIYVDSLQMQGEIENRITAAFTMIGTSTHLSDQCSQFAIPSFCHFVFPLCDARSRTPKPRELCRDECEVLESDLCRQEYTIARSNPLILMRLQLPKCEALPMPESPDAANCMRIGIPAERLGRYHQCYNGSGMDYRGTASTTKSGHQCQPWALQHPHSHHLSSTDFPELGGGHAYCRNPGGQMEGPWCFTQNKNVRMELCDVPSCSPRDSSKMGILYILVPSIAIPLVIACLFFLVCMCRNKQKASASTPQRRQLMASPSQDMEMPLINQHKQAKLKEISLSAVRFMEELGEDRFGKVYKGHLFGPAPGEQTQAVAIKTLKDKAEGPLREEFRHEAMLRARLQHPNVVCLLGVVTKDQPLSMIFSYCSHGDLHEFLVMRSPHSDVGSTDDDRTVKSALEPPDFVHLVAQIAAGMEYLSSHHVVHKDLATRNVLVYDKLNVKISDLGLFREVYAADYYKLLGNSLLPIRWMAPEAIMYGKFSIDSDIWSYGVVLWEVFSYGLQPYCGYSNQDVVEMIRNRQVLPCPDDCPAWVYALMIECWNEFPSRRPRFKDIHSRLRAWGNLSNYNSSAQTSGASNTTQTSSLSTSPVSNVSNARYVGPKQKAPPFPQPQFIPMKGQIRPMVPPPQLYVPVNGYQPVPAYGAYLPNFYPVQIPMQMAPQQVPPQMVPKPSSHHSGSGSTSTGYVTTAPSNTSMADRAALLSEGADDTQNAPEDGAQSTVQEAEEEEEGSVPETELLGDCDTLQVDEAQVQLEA
Protocol: as §1

[1] = KAM 0.001-10 uM, read-out: RB50 (the source's name)
[2] = read-out: RB50 (the source's name)

Structure (SMILES): N#CCc1ccc(Nc2nc(NCCCN)cc(Nc3cc(C4CC4)[nH]n3)n2)cc1 [KAM]
- IC50 (BUB1B; [1]): > 10 µM
- 0.001 uM KAM (BUB1B; relative to 0 uM KAM = 0): -0.0187
- 0.01 uM KAM (BUB1B; relative to 0 uM KAM = 0): -0.008778
- 0.1 uM KAM (BUB1B; relative to 0 uM KAM = 0): -0.0591
- 1 uM KAM (BUB1B; relative to 0 uM KAM = 0): -0.007813
- 10 uM KAM (BUB1B; relative to 0 uM KAM = 0): -0.008689
- median Log10 fold change (AURKC; 0.001 uM KAM): 0.0006126
- median Log10 fold change (AURKC; 0.01 uM KAM): -0.1035
- median Log10 fold change (AURKC; 0.1 uM KAM): -0.4123
- median Log10 fold change (AURKC; 1 uM KAM): -0.4901
- median Log10 fold change (AURKC; 10 uM KAM): -0.3419
- IC50 (AURKC; [2]): 0.075 µM
- IC50 (VRK1; [1]): > 10 µM
- 0.001 uM KAM (VRK1; relative to 0 uM KAM = 0): 0.05319
- 0.01 uM KAM (VRK1; relative to 0 uM KAM = 0): 0.02372
- 0.1 uM KAM (VRK1; relative to 0 uM KAM = 0): 0.08305
- 1 uM KAM (VRK1; relative to 0 uM KAM = 0): 0.1248
- 10 uM KAM (VRK1; relative to 0 uM KAM = 0): 0.03089
- IC50 (INSR; [1]): > 10 µM
- 0.001 uM KAM (INSR; relative to 0 uM KAM = 0): -0.0389
- 0.01 uM KAM (INSR; relative to 0 uM KAM = 0): 0.002129
- 0.1 uM KAM (INSR; relative to 0 uM KAM = 0): -0.09696
- 1 uM KAM (INSR; relative to 0 uM KAM = 0): -0.2508
- 10 uM KAM (INSR; relative to 0 uM KAM = 0): -0.2556
- median Log10 fold change (PTK2; 0.001 uM KAM): 0.001005
- median Log10 fold change (PTK2; 0.01 uM KAM): -0.00785
- median Log10 fold change (PTK2; 0.1 uM KAM): -0.1794
- median Log10 fold change (PTK2; 1 uM KAM): -0.5062
- median Log10 fold change (PTK2; 10 uM KAM): -0.5675
- IC50 (PTK2; [2]): 0.335 µM
- IC50 (MAP2K3; [1]): > 10 µM
- 0.001 uM KAM (MAP2K3; relative to 0 uM KAM = 0): 0.005145
- 0.01 uM KAM (MAP2K3; relative to 0 uM KAM = 0): -0.01205
- 0.1 uM KAM (MAP2K3; relative to 0 uM KAM = 0): -0.0928
- 1 uM KAM (MAP2K3; relative to 0 uM KAM = 0): -0.1584
- 10 uM KAM (MAP2K3; relative to 0 uM KAM = 0): -0.2828
- IC50 (PKMYT1; [1]): > 10 µM
- 0.001 uM KAM (PKMYT1; relative to 0 uM KAM = 0): -0.05315
- 0.01 uM KAM (PKMYT1; relative to 0 uM KAM = 0): -0.03451
- 0.1 uM KAM (PKMYT1; relative to 0 uM KAM = 0): -0.2607
- 1 uM KAM (PKMYT1; relative to 0 uM KAM = 0): -0.4249
- 10 uM KAM (PKMYT1; relative to 0 uM KAM = 0): -0.2726
- IC50 (ROR2; [1]): > 10 µM
- 0.001 uM KAM (ROR2; relative to 0 uM KAM = 0): -0.05631
- 0.01 uM KAM (ROR2; relative to 0 uM KAM = 0): -0.02329
- 0.1 uM KAM (ROR2; relative to 0 uM KAM = 0): -0.008785
- 1 uM KAM (ROR2; relative to 0 uM KAM = 0): -0.03493
- 10 uM KAM (ROR2; relative to 0 uM KAM = 0): 0.2477
